According to patent US20230271932A1, “SMALL MOLECULE COVALENT ACTIVATORS OF UCP1” (Dana-Farber Cancer Institute, Inc., priority 2020, published 2023):

Target: T1, UCP1 (Mus musculus, UniProt P12242)
T1 construct: Cellular oxygen consumption and UCP1-rependent respiration of primary brown adipocytes; endogenous in cells; host or cells: primary brown adipocytes differentiated from the interscapular brown adipose stromal vascular fraction of 2- to 6-day-old pups
T1 sequence (P12242 1-307): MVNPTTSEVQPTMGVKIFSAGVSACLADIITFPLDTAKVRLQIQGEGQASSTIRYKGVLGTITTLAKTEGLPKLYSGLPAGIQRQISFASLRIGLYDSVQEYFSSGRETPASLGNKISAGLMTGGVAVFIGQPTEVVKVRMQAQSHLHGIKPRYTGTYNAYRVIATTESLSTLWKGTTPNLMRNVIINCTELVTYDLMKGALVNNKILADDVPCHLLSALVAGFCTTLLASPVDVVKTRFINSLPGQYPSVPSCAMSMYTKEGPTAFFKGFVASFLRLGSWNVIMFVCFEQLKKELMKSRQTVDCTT
Experiment: UCP1-dependent respiration in primary brown adipocytes (Seahorse XF24 oxygen consumption)
Type: cell-based
Conditions: wild-type primary brown adipocytes; MYF compounds at 100 uM
Protocol: Primary brown adipocyte preparation and differentiation. Interscapular brown adipose stromal vascular fraction was obtained from 2- to 6-day-old pups as described in PMID: 30022159. Interscapular brown adipose was dissected, washed in PBS, minced, and digested for 45 min at 37° C. in PBS containing 1.5 mg ml^−1 collagenase B, 123 mM NaCl, 5 mM KCl, 1.3 mM CaCl2, 5 mM glucose, 100 mM HEPES, and 4% essentially fatty-acid-free BSA. Tissue suspension was filtered through a 40 µm cell strainer and centrifuged at 600 g for 5 min to pellet the SVF. The cell pellet was resuspended in adipocyte culture medium and plated. Cells were maintained at 37° C. in 10% CO2. Primary brown pre-adipocytes were counted and plated in the evening, 12 h before differentiation at 15,000 cells per well of a seahorse plate. Pre-adipocyte plating was scaled according to surface area. […]
Direct measure of UCP1-dependent respiration in brown adipocytes. […] Basal respiration was determined to be the oxygen consumption in the presence of substrate (1 mM sodium pyruvate) alone. Following determination of basal respiration, MYF compounds at 100 uM or vehicle was added to the cells and the respiration response measured immediately. […] Maximal respiration capacity was determined following addition of DNP (2 mM). […]

C=CC(=O)Nc1cc(-c2ccncc2)ccc1C(=O)OC [CP-A16, methyl 2-acrylamido-4-(pyridin-4-yl)benzoate]
UCP-1-dependent respiration: activation

CCC(=O)Nc1cc(-c2ccnnc2)sc1C(=O)OC [ZNL-06-123]
UCP-1-dependent respiration: activation
